Experiments:
[1] = tested on: sympathetic neurons exogenously expressing TrkB; conditions: U0126 added with 25 ng/ml BDNF, dose-dependent
Experimental: We transduced postnatal sympathetic neurons with an adenovirus encoding TrkB. In Campenot dishes, these neurons grow processes into compartments containing 25 ng/ml BDNF.

[2] = tested on: postnatal sympathetic neurons (SCG neurons); assay: Campenot chamber neurite growth assay; format: cell-based, rat; conditions: 50 μM U0126 with 10 ng/ml NGF
Experimental: We have devised a method for quantitatively assaying neurite growth. In this assay, the cell bodies of neurons are plated in Campenot chamber, a compartmentalized dish that has scratches or grooves in the matrix. The compartments are physically separated from each other by, for example, a Teflon® divider. The cells are placed in the central compartment. The scratches allow neurites to extend from the neuronal cell bodies and into adjacent compartments (FIG. 10A).
Neurites were induced to grow into HGF supplemented side compartments, and then visualized by staining against tubulin. Adenoviral-mediated expression of DN MEK in SCG neurons decreased neuritogenesis by 39% (FIGS. 10B, 10C).
We cultured postnatal sympathetic neurons in Campenot chambers. […] Addition of 50 μM U0126 in conjunction with 10 ng/ml NGF abrogates this growth while having no effects on cell survival (FIG. 15).

[3] = tested on: sympathetic neurons; assay: Quantitative dot-blot of MAP2 association with microtubules and microtubule stability; format: cell-based, rat; conditions: neurons maintained in NGF or NGF+KCl
Experimental: FIG. 22 is a schematic illustration showing immuno-dot blot analysis of MAP2 association and tubulin dynamics in SCG neurons. […]
Microtubules were isolated from cultured sympathetic neurons, and the relative amount of MAP2 present per microgram tubulin was determined using quantitative dot-blot analysis. […] Depolarization enhances MAP2 levels and CamKII phosphorylation in sympathetic neurons. We performed western blot analysis of sympathetic neurons treated with 10 ng/ml NGF, 50 mM KCl, or NGF+KCl. Lysates containing equal amounts of protein were separated by SDS-PAGE, transferred to nitrocellulose, and then probed for MAP2, phosphorylated-CamKII, phosphorylated-ERKs, or total ERK protein. KCl increases the amount of MAP2 present in sympathetic neurons, and enhances CamKII phosphorylation.
Inhibition of either CamKII or MEK is sufficient to inhibit activitydependent dendrite formation. Immunocytochemical analysis for MAP2 on sympathetic neurons cultured in the presence of NGF+KCl with or without 10 um KN62, 75 um PD98059, 100 nM H-89 or 10 uM forskolin. […] In this study, microtubule stability was determined in sympathetic neurons maintained in NGF or NGF+KCl, and treated with selective pharmacological inhibitors.

[4] = tested on: rat sympathetic neurons; assay: MTT survival assay of cultured sympathetic neurons; format: cell-based; conditions: cultured in NGF or NGF+KCl
Experimental: Neurons were plated at low density (approximately one ganglion/well) in Nunclon™ 4-well culture dishes (Gibco BRL, Burlington, Ontario, Canada), coated with either rat tail collagen or poly-D-lysine and laminin (both from Collaborative Biomedical Products, Bedford, Mass.). Culture medium was UltraCulture (BioWhittaker, Walkersville, Md.), supplemented with 3% rat serum (Harlan Bioproducts, Madison, Wis.), 2 mM glutamine, 100 U/ml penicillin, 100 μg/ml streptomycin (all from BioWhittaker), and for the first two days, 7 μM cytosine arabinoside (Sigma-Aldrich Canada Ltd., Oakville, Ontario, Canada).
NGF-dependent neurons were selected by culturing sympathetic neurons for five days in the presence of 50 ng/ml NGF. Neurons were washed three times for one hour each in neurotrophin-free media, and were then fed with media containing 10 ng/ml NGF alone, or various concentrations of NGF plus either 100 ng/ml BDNF, 10 μg/ml αBDNF, or a 1:100 dilution of antiserum containing the p75^NTR antibody, REX (Weskamp and Reichardt, Neuron 6: 649-663, 1991). Each condition was repeated in triplicate, and analysis of survival was performed 48 hours later by using nonradioactive cell proliferation (MTT) assays (Celltitre 96; Promega; Belliveau et al., J. Cell Biol. 136:375-388, 1997). Specifically, 50 μl of the MTT reagent was added to 500 μl media in each well, and incubated for two hours at 37° C. After aspiration of the MTT containing media, 100 μl of a 0.065N HCl/isopropanol mixture was added to each well to lyse the cells, and colorimetric analysis was performed using an ELISA reader. For rat sympathetic neurons, 10 ng/ml NGF represents 100% survival, therefore all other values were considered to be relative to 10 ng/ml NGF. For mouse neurons, 7.5 ng/ml NGF represents 100% survival, and was thus considered to be the 100% survival threshold for neuritogenesis experiments.

Structure (SMILES): N#CC(=C(/N)Sc1ccccc1N)/C(C#N)=C(\N)Sc1ccccc1N [U0126]
- TrkB-mediated neuronal growth [1]: dramatically reduced
- NGF-induced neuronal growth into side compartment [2]: abrogates
- cell survival [2]: no effects
- KCl-induced increase in microtubule stability [3]: completely inhibit
- survival of sympathetic neurons (MTT) [4]: None of these compounds perturbs
